In patent US7153884B2, “C-2′ methylated derivatives of paclitaxel for use as antitumour agents” (Indena S.p.A., priority 2001, dated 2006) one finds IC50 data, which are given here for six molecules.

Common to all, as to format: cell-based
In one experiment the test system is A2780wt cell line. Kind of experiment: Cell viability by ATP dosage (ATPlite), 72 h continuous exposure, A2780wt. The note with it: A2780wt cells, continuous exposure 72 hours, viable cells by ATP dosage. On the procedure: (§1) Pharmacological experimentation was carried out on the compounds of the invention at a 0.1% concentration in dimethylsulfoxide. A2780wt, A2780cis, A2780adr and A2780tax cell lines were used. Cells were plated on 96 well flat bottom plates (Viewplates, Packard). After 24-hours, the culture medium was replaced and, after washing, media containing the tested compounds were added. A dose-response logarithmic curve was established in quadruplicate for each plate, starting from […]. Each assay was effected in duplicate three times. After 72 hour-culture in the presence of the tested compounds, the cells were collected and the number of viable cells was evaluated by ATP dosage, using the ATPlite kit (Packard, Meridien, Mo., USA) and the Topcount (Packard) automated luminometer. For each drug/cell line, the dose-response curve was plotted and the IC50 values were calculated from the concentration-effect curve obtained in three tests with the sigmoid-Emax model using non-linear regression, weighted by the reciprocal of the square of the predicted effect.

The next experiment deals with A2780cis cell line. Kind of experiment: Cell viability by ATP dosage (ATPlite), 72 h continuous exposure, A2780cis. The note with it: A2780cis cells, continuous exposure 72 hours, viable cells by ATP dosage. On the procedure:
as §1
(In ATP-based viability assays light output follows the ATP content of the culture.)

Another experiment relates to A2780tax cell line. Kind of experiment: Cell viability by ATP dosage (ATPlite), 72 h continuous exposure, A2780tax. The note with it: A2780tax cells, continuous exposure 72 hours, viable cells by ATP dosage. On the procedure:
as §1

In the next experiment the test system is A2780adr cell line. Kind of experiment: Cell viability by ATP dosage (ATPlite), 72 h continuous exposure, A2780adr. Particulars: A2780adr cells, continuous exposure 72 hours, viable cells by ATP dosage. How it is done: as §1

A word on the IC50: it is the midpoint of a concentration-inhibition curve. A low value points to greater potency. For the molecule `CC(=O)O[C@H]1C(=O)[C@@]2(C)[C@H]([C@H](OC(=O)c3ccccc3)[C@]34OC(=O)O[C@H]3[C@H](OC(=O)[C@](C)(O)[C@@H](NC(=O)OC(C)(C)C)c3ccco3)C(C)=C1C4(C)C)[C@]1(OC(C)=O)CO[C@@H]1C[C@@H]2O` [Es. 4, (2′R,3′R)-13-[N-Boc-2-methyl-3-(2-furanyl)isoserinoyl]-14β-hydroxybaccatin III 1,14-carbonate], the IC50 in the experiment with A2780wt cell line was determined as 5.9 ± 0.7 nM; in the experiment with A2780cis cell line it was 2.5 ± 0.3 nM; in the experiment on A2780tax cell line, 30.9 ± 3.7 nM; with A2780adr cell line, 27.1 ± 10.1 nM.

“(2′R,3′R)-13-[N-Boc-2-methyl-3-(2-thienyl)isoserinoyl]-14β-hydroxybaccatin III 1,14-carbonate [Es. 6]”: the IC50 was 3.7 ± 0.4 nM in the experiment on A2780wt cell line, 2.9 ± 0.2 nM with A2780cis cell line, 160 ± 32 nM in the experiment on A2780tax cell line and 93.2 ± 20.4 nM with A2780adr cell line.

On to `CC(=O)OC1C(=O)C2(C)C(O)CC3OCC3(OC(C)=O)C2C(OC(=O)c2ccccc2)C2(O)CC(OC(=O)C(C)(O)C(NC(=O)c3ccccc3)c3ccco3)C(C)=C1C2(C)C` (stereo not drawn) [Es. 1, (2′R,3′R)-3′-dephenyl-3′-(2-furyl)-2′-methyl-paclitaxel], for which the IC50 with A2780wt cell line was found to be 3.1 ± 0.2 nM; in the experiment on A2780cis cell line it was 2.9 ± 0.1 nM; in the experiment on A2780tax cell line, 420 ± 93 nM; in the experiment with A2780adr cell line, 61.4 ± 3.9 nM.

For `CC(=O)O[C@H]1C(=O)[C@@]2(C)[C@H]([C@H](OC(=O)c3ccccc3)[C@]3(O)C[C@H](OC(=O)[C@](C)(O)[C@@H](NC(=O)OC(C)(C)C)c4ccco4)C(C)=C1C3(C)C)[C@]1(OC(C)=O)CO[C@@H]1C[C@@H]2O` [Es. 3, (2′R,3′R)-13-[N-Boc-2-methyl-3-(2-furanyl)-isoserinoyl]-baccatin III], the IC50 in the experiment with A2780wt cell line was 2.9 ± 0.1 nM; in the experiment with A2780cis cell line, 3.3 ± 0.2 nM; with A2780tax cell line it was 312 ± 61 nM; in the experiment on A2780adr cell line, 41.3 ± 7.4 nM.

As to `CC(=O)O[C@H]1C(=O)[C@@]2(C)[C@H]([C@H](OC(=O)c3ccccc3)[C@]34OC(=O)O[C@H]3[C@H](OC(=O)[C@](C)(O)[C@@H](NC(=O)OC(C)(C)C)C(F)(F)F)C(C)=C1C4(C)C)[C@]1(OC(C)=O)CO[C@@H]1C[C@@H]2O` [Es. 5, (2′R,3′R)-13-[N-Boc-2-methyl-3-trifluoromethylisoserinoyl]-14β-hydroxybaccatin III 1,14-carbonate], the IC50 with A2780wt cell line was found to be 4.64 ± 2.58 nM; with A2780cis cell line it was 2.8 ± 0.6 nM; in the experiment on A2780tax cell line, 285 ± 60 nM; in the experiment on A2780adr cell line it was 79.3 ± 19.9 nM.

With `CC(=O)O[C@H]1C(=O)[C@@]2(C)[C@H]([C@H](OC(=O)c3ccccc3)[C@]34OC(=O)O[C@H]3[C@H](OC(=O)[C@](C)(O)[C@@H](NC(=O)OC(C)(C)C)c3ccccc3)C(C)=C1C4(C)C)[C@]1(OC(C)=O)CO[C@@H]1C[C@@H]2O` [Es. 2, (2′R,3′S)-13-(N-Boc-2-methyl-3-phenylisoserinoyl)-14β-hydroxybaccatin III 1,14-carbonate], the IC50 with A2780wt cell line came to 2.53 ± 1.47 nM; in the experiment with A2780cis cell line, 1.7 ± 0.4 nM; with A2780tax cell line it was 299 ± 77 nM; with A2780adr cell line it was 52.9 ± 16.2 nM.
